Patent publication US12187717B2, “Compound and use thereof in treating autoimmune diseases” (PARENCHYMA BIOTECH INC., priority 2022, dated 2025)
Where two headings read alike, the source gives them in different places.

Key:
[1] = Pharmacokinetic parameters after oral or intravenous administration; format: in vivo; conditions: rats; for bioavailability: read-out: Bioavailability (F %); for increase of AUClast compared to Comparative Example 1 / increase of Cmax compared to Comparative Example 1: oral
Procedure: For rats, an oral administration group was fasted for 16 hours, and an intravenous administration group was subjected to intravenous administration with 10 mL/kg of solution prepared by completely dissolving Compound 6 in an ethanol-Cremophor EL mixture corresponding to 7.5% (v/v) of the administered dose, and then diluting in phosphate buffered saline so as to be the final ethanol:Cremophor EL:phosphate buffered saline (0.375:0.375:9.25, v/v/v), without fasting, at the dose concentration listed in Table 3. The oral administration group was supplied with food about 4 hours after administration. Blood collection was performed on the intravenous administration group after 0.083, 0.5, 1, 2, 4, 8, 24 hours from the administration and on the oral administration group after 0.5, 1, 2, 4, 8, 12, 24 hours from the administration, and plasma was recovered using centrifugation. In the recovered plasma, the drug concentration in the plasma was measured using UHPLC-MS/MS method.

CYP2C19 = CYP2C19 (Homo sapiens, UniProt P33261); assay: CYP isoenzyme activity; format: in vitro ADME; conditions: 10 μM
Chain of CYP2C19 (P33261 whole entry): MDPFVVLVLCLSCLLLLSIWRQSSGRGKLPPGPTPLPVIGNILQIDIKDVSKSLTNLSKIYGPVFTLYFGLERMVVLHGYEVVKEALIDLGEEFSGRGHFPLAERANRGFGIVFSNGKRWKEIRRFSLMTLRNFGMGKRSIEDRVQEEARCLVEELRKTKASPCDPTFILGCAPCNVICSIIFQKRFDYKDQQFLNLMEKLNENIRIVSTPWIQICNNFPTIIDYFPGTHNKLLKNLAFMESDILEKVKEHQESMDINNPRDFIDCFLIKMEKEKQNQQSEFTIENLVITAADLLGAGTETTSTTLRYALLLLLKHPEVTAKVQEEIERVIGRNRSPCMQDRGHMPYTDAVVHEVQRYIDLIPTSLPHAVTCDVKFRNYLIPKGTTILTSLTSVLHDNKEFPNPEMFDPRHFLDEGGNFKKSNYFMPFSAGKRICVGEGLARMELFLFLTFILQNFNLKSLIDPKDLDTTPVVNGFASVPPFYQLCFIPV

[2] = test system: DSS-induced inflammatory bowel disease; assay: DSS-induced inflammatory bowel disease model: severity index and colon weight:length ratio; format: in vivo, C57BL/6 mice; conditions: 10 mg/kg oral daily, compared to solvent control
Procedure: On day 0 of the experiment, a 2.0% DSS solution prepared by dissolving DSS (Dextran sulfate sodium, MP biomedicals, Cat No. 160110) in […] was given for drinking to C57BL/6 mice (11 weeks old, female, 20±2 g) for 7 days. The 2.0% DSS solution was changed at an interval of 2 days. Sterile distilled water was provided for drinking from the 8th day of the experiment. Body weight and severity index were measured at an interval of 2 days from the 0th day of the experiment in order to confirm the onset of inflammatory bowel disease.
10 mg/kg of Compound 6 per mouse was completely dissolved in an ethanol-Cremophor EL mixture corresponding to 7.5% (v/v) of the administered dose, and then, was diluted in phosphate buffered saline to prepare the final ethanol:Cremophor EL:phosphate buffered saline (0.375:0.375:9.25, v/v/v), followed by oral administration of 200 μl daily for a total of 14 times from the 1st to 14th days of the experiment. An inflammatory bowel disease severity index was visually observed and recorded at an interval of 2 days according to a severity index system classified into 0 to 10 levels.
Inflammatory bowel disease symptoms were evaluated by summing the scores of three items according to the following items (Table 2).

[3] = test system: colitis-associated colorectal cancer (CA-CRC); assay: AOM/DSS colorectal cancer model, preventive administration; format: in vivo, C57BL/6 mice; conditions: 10 mg/kg oral, 7th to 20th days (prevention)
Procedure: AOM (Sigma Aldrich, Cat No. A5486) was diluted with physiological saline so as to be a concentration of 10 mg/kg, and then administered intraperitoneally to C57BL/6 mice (8 weeks old, female, 18±2 g) by […] for a total of 3 times at an interval of 7 days (Experiment day 0, 7, 14th). On the 7th day of the experiment, a 1.5% DSS solution prepared by dissolving 1.5% DSS in sterile distilled water was given for drinking to the mice for 7 days. Further, the 1.5% DSS solution was changed at an interval of 2 days. Sterile distilled water was provided for drinking from the 8th day of the experiment. In the compound 6 administration group according to an embodiment of the present invention, 10 mg/kg of Compound 6 per mouse was completely dissolved in an ethanol-Cremophor EL mixture corresponding to 7.5% (v/v) of the administered dose, and then, was diluted in phosphate buffered saline to prepare the final ethanol:Cremophor EL:phosphate buffered saline (0.375:0.375:9.25, v/v/v), followed by oral administration with 200 μl of the prepared solution. In order to confirm the preventive effect, Compound 6 was administered for a total of 14 times from the 7th to the 20th days of the experiment.

[4] = test system: colitis-associated colorectal cancer (CA-CRC); assay: AOM/DSS colorectal cancer model, therapeutic administration; format: in vivo, C57BL/6 mice; conditions: 10 mg/kg oral, 50th to 63rd days (treatment)
Procedure: AOM (Sigma Aldrich, Cat No. A5486) was diluted with physiological saline so as to be a concentration of 10 mg/kg, and then administered intraperitoneally to C57BL/6 mice (8 weeks old, female, 18±2 g) by […] for a total of 3 times at an interval of 7 days (Experiment day 0, 7, 14th). On the 7th day of the experiment, a 1.5% DSS solution prepared by dissolving 1.5% DSS in sterile distilled water was given for drinking to the mice for 7 days. Further, the 1.5% DSS solution was changed at an interval of 2 days. Sterile distilled water was provided for drinking from the 8th day of the experiment. In the compound 6 administration group according to an embodiment of the present invention, 10 mg/kg of Compound 6 per mouse was completely dissolved in an ethanol-Cremophor EL mixture corresponding to 7.5% (v/v) of the administered dose, and then, was diluted in phosphate buffered saline to prepare the final ethanol:Cremophor EL:phosphate buffered saline (0.375:0.375:9.25, v/v/v), followed by oral administration with 200 μl of the prepared solution. In order to confirm the preventive effect, Compound 6 was administered for a total of 14 times from the 7th to the 20th days of the experiment. The effects of Compound 6 according to an embodiment of the present invention on treating colon cancer was confirmed. From the 50th to the 63rd days of the experiment, DSS was administered on the 7th and 14th days after AOM administration to the mice to induce colon cancer, and Compound 6 was administered 14 times from the 50th to the 63rd days. […] That is, it was confirmed that Compound 6 was effective in treating colon cancer (FIGS. 13 and 14). Therefore, it was confirmed that Compound 6 can be used as an effective preventive and therapeutic agent for colon cancer.

[5] = rat, plasma, Intravenous (IV), 1 mg/kg
[6] = rat, plasma, Oral (PO), 10 mg/kg
[7] = rat, plasma, Oral (PO), 50 mg/kg
[8] = Oral (PO), 10 mg/kg (reference dose, dose ratio 1)
[9] = Oral (PO), 50 mg/kg relative to 10 mg/kg (dose ratio 5)
[10] = 10 mg/kg vs Comparative Example 1 at 10 mg/kg
[11] = 50 mg/kg vs Comparative Example 1 at 100 mg/kg

- AUC(0-t) [1, 5]: 1160 ng·h/mL
- C0 [1, 5]: 1420 ng/mL
- clearance [1, 5]: 14.4 mL/min/kg
- half-life [1, 5]: 1.04 h
- Vd ([1]; rat, plasma, Intravenous (IV), 1 mg/kg, read-out: Vdss): 0.924 L/kg
- AUC(0-t) [1, 6]: 4350 ng·h/mL
- Cmax [1, 6]: 742 ng/mL
- Tmax [1, 6]: 2 h
- half-life [1, 6]: 2 h
- bioavailability [1, 6]: 37.3%
- AUC(0-t) [1, 7]: 43100 ng·h/mL
- Cmax [1, 7]: 4590 ng/mL
- Tmax [1, 7]: 4 h
- half-life [1, 7]: 3.83 h
- bioavailability [1, 7]: 73.9%
- AUClast Ratio [1, 8]: 1.0
- Cmax ratio [1, 8]: 1.0
- AUClast Ratio [1, 9]: 9.9
- Cmax ratio [1, 9]: 6.2
- increase of AUClast compared to Comparative Example 1 [1, 10]: 5.9 times
- increase of Cmax compared to Comparative Example 1 [1, 10]: 11.9 times
- increase of AUClast compared to Comparative Example 1 [1, 11]: 66.8 times
- increase of Cmax compared to Comparative Example 1 [1, 11]: 30.2 times
- CYP2C19 activity (CYP2C19): 93.1 % of Control Activity
- inhibition of the enzyme activity of CYP2C19 (CYP2C19): little effect
Structure (SMILES): O=C(Cc1c[nH]c2ccc(Cl)cc12)Nc1nc2ccc(N3CCOCC3)cc2s1 [Compound 6, 2-(5-chloro-1H-indol-3-yl)-N-(6-morpholinobenzo[d]thiazol-2-yl)acetamide]
- inflammatory bowel disease severity index ([2]; 10th day): statistically significant therapeutic effects
- colon weight:length ratio ([2]; 15th day): significantly suppressed
- body weight ([3]; after 70 days): increase in the body weight similar to that of normal mice
- number of tumors ([3]; vs control): significantly smaller
- size of tumors ([3]; vs control): significantly smaller
- body weight ([4]; after 70 days): increase in the body weight similar to that of normal mice
- number of tumors ([4]; vs control): significantly smaller
- size of tumors ([4]; vs control): significantly smaller
